# Measured values published in patent US7553966B2, “Glucocorticoid mimetics, methods of making them, pharmaceutical compositions, and uses thereof” (Boehringer Ingelheim Pharmaceuticals, Inc., priority 2002, dated 2009).
# Biological target: T1, human glucocorticoid receptor (GR) complex (Homo sapiens, UniProt P04150)
# T1 construct: made in house; host or cells: insect expression system (baculovirus lysate)
# T1 sequence (P04150 1-777): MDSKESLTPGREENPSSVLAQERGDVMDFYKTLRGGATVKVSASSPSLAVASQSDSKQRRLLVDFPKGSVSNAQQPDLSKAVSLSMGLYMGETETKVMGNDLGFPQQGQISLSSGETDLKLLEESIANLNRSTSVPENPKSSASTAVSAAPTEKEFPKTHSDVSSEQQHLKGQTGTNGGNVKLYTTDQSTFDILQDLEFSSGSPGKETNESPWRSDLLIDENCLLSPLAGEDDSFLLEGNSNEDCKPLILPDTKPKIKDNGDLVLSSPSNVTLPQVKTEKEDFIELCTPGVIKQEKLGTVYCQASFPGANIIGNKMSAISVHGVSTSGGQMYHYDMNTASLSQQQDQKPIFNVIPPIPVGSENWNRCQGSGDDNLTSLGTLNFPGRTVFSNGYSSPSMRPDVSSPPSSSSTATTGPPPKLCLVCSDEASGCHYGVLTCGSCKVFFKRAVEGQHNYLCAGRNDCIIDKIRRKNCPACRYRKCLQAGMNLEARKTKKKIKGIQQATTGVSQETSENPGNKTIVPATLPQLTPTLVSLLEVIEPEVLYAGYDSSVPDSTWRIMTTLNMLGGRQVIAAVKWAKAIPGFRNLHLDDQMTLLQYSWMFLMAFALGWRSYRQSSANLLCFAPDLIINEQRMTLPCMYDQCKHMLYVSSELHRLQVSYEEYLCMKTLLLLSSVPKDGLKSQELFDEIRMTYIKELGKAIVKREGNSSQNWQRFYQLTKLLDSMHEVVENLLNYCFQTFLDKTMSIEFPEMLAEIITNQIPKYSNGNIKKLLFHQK
# Experiment: Glucocorticoid Receptor Competitive Binding Assay (fluorescence polarization, TAMRA-labeled dexamethasone probe)
# Conditions: qualitative statement; competition with TAMRA-labeled dexamethasone
# Protocol: Compounds of the invention were evaluated for binding to the steroid receptor by a fluorescence polarization competitive binding assay.
# A. Glucocorticoid Receptor Competitive Binding Assay
# Step 1. Characterization of the Fluorescent Probe
# The wavelengths for maximum excitation and emission of the fluorescent probe should first be measured. An example of such a probe is rhodamine (TAMRA)-labeled dexamethasone.
# The affinity of the probe for the steroid receptor was then determined in a titration experiment. The fluorescence polarization value of the probe in assay buffer was measured on an SLM-8100 fluorometer using the excitation and emission maximum values described above. Aliquots of expression vector lysate were added and fluorescence polarization was measured after each addition until no further change in polarization value was observed. Non-linear least squares regression analysis was used to calculate the dissociation constant of the probe from the polarization values obtained for lysate binding to the probe.
# Step 2. Screening for Inhibitors of Probe Binding
# This assay uses fluorescence polarization (FP) to quantitate the ability of test compounds to compete with tetramethyl rhodamine (TAMRA)-labeled dexamethasone for binding to a human glucocorticoid receptor (GR) complex prepared from an insect expression system. The assay buffer was: 10 mM TES, 50 mM KCl, 20 mM Na2MoO4. 2H2O, 1.5 mM EDTA, 0.04% w/v CHAPS, 10% v/v glycerol, 1 mM dithiothreitol, pH 7.4. Test compounds were dissolved to 1 mM in neat DMSO and then further diluted to 10× assay concentration in assay buffer supplemented with 10% v/v DMSO. Test compounds were serially diluted at 10× assay concentrations in 10% DMSO-containing buffer in 96-well polypropylene plates. […] Positive controls were reaction mixtures containing no test compound; negative controls (blanks) were reaction mixtures containing 0.7 μM to 2 μM dexamethasone. […] IC50 values were determined by iterative non-linear curve fitting of the FP signal data to a 4-parameter logistic equation.
row,SMILES,activity in the GR binding assay
1,CC(C)(CC(O)(Cc1[nH]c2ccccc2c1C#N)C(F)(F)F)c1cccc2c1OCC2 (stereo not shown),potent activity
2,"COc1c(C(C)(C)CC(O)(Cc2cc3ccccc3[nH]2)C(F)(F)F)ccc2ccccc12 (stereo not shown) [1,1,1-Trifluoro-2-(1H-indol-2-ylmethyl)-4-(1-methoxynaphthalen-2-yl)-4-methylpentan-2-ol]",potent activity
3,"COc1ccc(C(C)(C)CC(O)(Cc2cc3ccccc3[nH]2)C(F)(F)F)cc1 (stereo not shown) [1,1,1-Trifluoro-2-(1H-indol-2-ylmethyl)-4-(4-methoxyphenyl)-4-methylpentan-2-ol]",potent activity
4,"CC(C)(CC(O)(Cc1cc2ccccc2[nH]1)C(F)(F)F)c1ccc2ccccc2c1 (stereo not shown) [1,1,1-Trifluoro-2-(1H-indol-2-ylmethyl)-4-methyl-4-naphthalen-2-ylpentan-2-ol]",potent activity
5,"Cc1ccc(C(C)(C)CC(O)(Cc2cc3ccccc3[nH]2)C(F)(F)F)cc1 (stereo not shown) [1,1,1-Trifluoro-2-(1H-indol-2-ylmethyl)-4-methyl-4-p-tolylpentan-2-ol]",potent activity
6,"CC(C)(CC(O)(Cc1cc2ccccc2[nH]1)C(F)(F)F)c1ccccc1 (stereo not shown) [1,1,1-Trifluoro-2-(1H-indol-2-ylmethyl)-4-methyl-4-phenylpentan-2-ol]",potent activity
7,"CC(C)(CC(O)(Cc1cc2ccccc2[nH]1)C(F)(F)F)c1ccsc1 (stereo not shown) [1,1,1-Trifluoro-2-(1H-indol-2-ylmethyl)-4-methyl-4-thiophen-3-ylpentan-2-ol]",potent activity
8,"COc1ccc(F)cc1C(C)(C)CC(O)(Cc1cc2cc(F)ccc2[nH]1)C(F)(F)F (stereo not shown) [1,1,1-Trifluoro-2-(5-fluoro-1H-indol-2-ylmethyl)-4-(5-fluoro-2-methoxyphenyl)-4-methylpentan-2-ol]",potent activity
9,"COc1ccc(F)cc1C(C)(C)CC(O)(Cc1nc2ccc(F)cc2[nH]1)C(F)(F)F (stereo not shown) [1,1,1-Trifluoro-2-(6-fluoro-1H-benzoimidazol-2-ylmethyl)-4-(5-fluoro-2-methoxyphenyl)-4-methylpentan-2-ol]",potent activity
10,"CC(C)(CC(O)(Cc1cc2cccc(F)c2[nH]1)C(F)(F)F)c1ccccc1 (stereo not shown) [1,1,1-Trifluoro-2-(7-fluoro-1H-indol-2-ylmethyl)-4-methyl-4-phenylpentan-2-ol]",potent activity
11,"COc1c(C(C)(C)CC(O)(Cc2ccnc3ccccc23)C(F)(F)F)ccc2ccccc12 (stereo not shown) [1,1,1-Trifluoro-4-(1-methoxynaphthalen-2-yl)-4-methyl-2-quinolin-4-ylmethylpentan-2-ol]",potent activity
12,"CC(C)(CC(O)(Cc1cc2ccccc2[nH]1)C(F)(F)F)c1cccc(F)c1 (stereo not shown) [1,1,1-Trifluoro-4-(3-fluorophenyl)-2-(1H-indol-2-ylmethyl)-4-methylpentan-2-ol]",potent activity
13,"CC(C)(CC(O)(Cc1cc2ccncc2[nH]1)C(F)(F)F)c1cccc(F)c1 (stereo not shown) [1,1,1-Trifluoro-4-(3-fluorophenyl)-4-methyl-2-(1H-pyrrolo[2,3-c]pyridin-2-ylmethyl)pentan-2-ol]",potent activity
14,"CC(C)(CC(O)(Cc1cc2cnccc2[nH]1)C(F)(F)F)c1cccc(F)c1 (stereo not shown) [1,1,1-Trifluoro-4-(3-fluorophenyl)-4-methyl-2-(1H-pyrrolo[3,2-c]pyridin-2-ylmethyl)pentan-2-ol]",potent activity
15,"COc1cccc(C(C)(C)CC(O)(Cc2cc3cc(C(F)(F)F)ccc3[nH]2)C(F)(F)F)c1 (stereo not shown) [1,1,1-Trifluoro-4-(3-methoxyphenyl)-4-methyl-2-(5-trifluoromethyl-1H-indol-2-ylmethyl)pentan-2-ol]",potent activity
16,"CC(C)(CC(O)(Cc1ccnc2cc(F)ccc12)C(F)(F)F)c1ccc(F)cc1 (stereo not shown) [1,1,1-Trifluoro-4-(4-fluorophenyl)-2-(7-fluoroquinolin-4-ylmethyl)-4-methylpentan-2-ol]",potent activity
